Data as given in US8597618B1, “Dentifrice composition” (Toms's of Maine, Inc., priority 2012, dated 2013).
Read-outs that look alike come from different tables or passages of the source.

Columns and labels:
[1] = Foaming capability of individual surfactant components admixed with water and agitated; assay type: physicochemical; details: for Foaming ability: numerical score, 1 representing an excellent foamer and 5 a poor foamer
Description: The foaming ability was determined by a numerical score, 1 representing an excellent foamer and 5 representing a poor foamer

EpiOral ORL-200 model [2] = assay: EpiOral in Vitro Irritation Test Method (EpiOral ORL-200 model); details: for ET-50 Time: time at which 50% of cells are viable, test terminated at 240 minutes
Description: (§1) To evaluate the potential irritancy of the dentifrice formulae, surfactant components were diluted in water and tested using an EpiOral in Vitro Irritation Test Method, in particular the EpiOral ORL-200 model, a known model for testing irritant potential of dentifrice components.
(§2) In the EpiOral test, the dentifrice components were tested to determine the parameter “ET-50” which represents the time at which 50% of cells are viable: the higher the ET-50 time then the less irritating the material.
(§3) Dentifrice compositions incorporating different surfactant systems were also subjected to the EpiOral test.

EpiOral ORL-200 model [3] = tested on: EpiOral ORL-200 model
Description: as §1, §2, §3

Row | foaming ability as compared to sodium lauryl sulfate ([1]; individual surfactant components, in words) | ET-50 Time (EpiOral ORL-200 model [3]) [min] | Compound | Foaming ability [1] | ET-50 Time (EpiOral ORL-200 model [2]; surfactant component 1 wt % in water) [min] | ET-50 Time (EpiOral ORL-200 model [2]; surfactant component 2 wt % in water) [min] | potential irritancy (EpiOral ORL-200 model [2]; surfactant components in water at different concentrations, in words) | potential irritancy (EpiOral ORL-200 model [3])
1 |  |  | CCCCCCCCCCCCOS(=O)(=O)[O-].[Na+] [Sodium lauryl sulfate, sodium lauryl sulfate] | 1 | 115.4 | 48.3 | high | 
2 | significantly poorer | >240 | lauryl glucoside | 3 |  |  |  | very low
